One assay has as its target T1, Caspase-3 (Homo sapiens) (UniProt P42574).
T1 sequence (whole entry): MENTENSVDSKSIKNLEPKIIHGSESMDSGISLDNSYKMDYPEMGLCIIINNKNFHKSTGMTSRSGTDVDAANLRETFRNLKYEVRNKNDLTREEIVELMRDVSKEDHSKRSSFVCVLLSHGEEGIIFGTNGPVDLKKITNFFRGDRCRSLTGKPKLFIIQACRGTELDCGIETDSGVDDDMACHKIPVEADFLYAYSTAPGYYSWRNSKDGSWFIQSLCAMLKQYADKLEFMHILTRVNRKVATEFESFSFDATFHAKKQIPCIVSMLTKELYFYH
Nature of the assay: […] caspase 3 activity at 210 nM relative to control. More on the design: scale not given: the % may be the effect or the level left.

A further assay has as its target T2, Caspase-6 (Homo sapiens) (UniProt P55212).
T2 sequence (whole entry): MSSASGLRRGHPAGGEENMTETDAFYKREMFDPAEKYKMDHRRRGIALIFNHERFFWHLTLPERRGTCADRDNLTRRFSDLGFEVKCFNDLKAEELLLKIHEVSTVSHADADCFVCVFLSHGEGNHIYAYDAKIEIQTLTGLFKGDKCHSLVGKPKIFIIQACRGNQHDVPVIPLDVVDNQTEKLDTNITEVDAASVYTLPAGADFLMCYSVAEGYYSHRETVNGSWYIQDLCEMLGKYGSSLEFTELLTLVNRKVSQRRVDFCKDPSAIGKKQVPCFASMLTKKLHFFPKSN
The assay can be described thus: Effect on recombinant caspase 6 activity at 210 nM relative to control.

For a further assay, the target named is T3, Caspase-4 (Homo sapiens) (UniProt P49662).
T3 sequence (whole entry): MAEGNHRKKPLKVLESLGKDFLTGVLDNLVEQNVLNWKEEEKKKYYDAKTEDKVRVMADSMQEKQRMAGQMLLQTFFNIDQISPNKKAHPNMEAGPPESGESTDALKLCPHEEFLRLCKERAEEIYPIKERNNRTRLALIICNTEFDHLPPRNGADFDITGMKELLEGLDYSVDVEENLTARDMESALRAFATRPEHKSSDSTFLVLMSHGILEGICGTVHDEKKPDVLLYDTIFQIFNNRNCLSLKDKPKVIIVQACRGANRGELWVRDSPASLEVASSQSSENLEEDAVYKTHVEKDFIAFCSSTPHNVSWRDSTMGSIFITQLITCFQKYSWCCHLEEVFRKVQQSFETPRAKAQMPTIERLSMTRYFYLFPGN
Nature of the assay: Effect on recombinant caspase 4 activity at 210 nM relative to control.

In the case of `CC(=O)N[C@@H](CC(=O)O)C(=O)NC1N=C(c2ccccc2)c2ccccc2N(CC(=O)N[C@H]2CC(=O)OC2O)C1=O` (stereo partly drawn), the Activity was 9% at Caspase-3 (Homo sapiens), 58% at Caspase-6 (Homo sapiens) and 95% at Caspase-4 (Homo sapiens).

These data come from ChEMBL document CHEMBL1149270, “Design and synthesis of a potent and selective peptidomimetic inhibitor of caspase-3” (J Med Chem, 2004).
